The text below walks through data of patent US20140162942A1, “INHIBITION OF CYP3A DRUG METABOLISM” (priority 2010, published 2014).

The structures appear in SMILES notation. Like-named read-outs stand apart in the source and are kept apart here.

Data set [1] concerns the target T1, CYP1A2 (Homo sapiens, UniProt P05177).
T1 construct: Pooled human liver microsomes (from sixteen individuals) were used as the source of enzymes; tissue XenoTech, LLC; host or cells: human liver microsomes, pool of sixteen donors
T1 sequence (P05177 1-516): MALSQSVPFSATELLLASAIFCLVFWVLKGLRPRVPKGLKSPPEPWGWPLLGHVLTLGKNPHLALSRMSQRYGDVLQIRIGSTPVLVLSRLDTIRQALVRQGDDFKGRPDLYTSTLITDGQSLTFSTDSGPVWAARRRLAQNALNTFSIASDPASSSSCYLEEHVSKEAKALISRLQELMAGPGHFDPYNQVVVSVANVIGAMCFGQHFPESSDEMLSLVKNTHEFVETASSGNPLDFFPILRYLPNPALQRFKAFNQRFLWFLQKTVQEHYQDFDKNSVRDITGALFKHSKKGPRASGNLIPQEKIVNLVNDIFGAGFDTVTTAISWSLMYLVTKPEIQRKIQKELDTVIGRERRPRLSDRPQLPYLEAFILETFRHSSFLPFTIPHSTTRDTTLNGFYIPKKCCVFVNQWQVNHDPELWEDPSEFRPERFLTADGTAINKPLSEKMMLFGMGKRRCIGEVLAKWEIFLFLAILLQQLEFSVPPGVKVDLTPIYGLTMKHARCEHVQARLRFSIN
Put plainly: CYP1A2 inhibition, phenacetin O-deethylation in human liver microsomes. Type of data set: in vitro ADME. The conditions noted are these: for Potential for Time-Dep. Inhibition: comparison with and without 30-minute pre-incubation; for inhibition at 5 min, 100 µM: human, pH 7.4, probe phenacetin (O-deethylation), 60 μM. On the procedure: The basis for many of the following incubation conditions is described in the following references: Madan, et al., 2002,^(1) Huang, 2004,^(3) Ogilvie, et al., 2006,^(6) Pearce, et al., 1996,^(7) Tucker, et al., 2001,^(4) and Walsky and Obach, 2004.^(5) In general, incubations were conducted at approximately 37° C. in 400-μL incubation mixtures (target pH 7.4) containing high purity water, potassium phosphate buffer (50 mM), MgCl2 (3 mM), EDTA (1 mM), an NADPH-generating system [always the mixture of the following: NADP (1 mM), glucose-6-phosphate (5 mM), glucose-6-phosphate dehydrogenase (1 Unit/mL)], and marker substrate at the final concentrations indicated. Pooled human liver microsomes (from sixteen individuals) were used as the source of enzymes (Section 1.3.1.2). The concentrations of marker substrates were based on the Km and Vmax data that were determined previously (data not shown).
Due to the possibility that boceprevir may bind to microsomal protein or lipids, an attempt was made to design these experiments such that, in as many cases as possible, the microsomal protein, incubation time, and phosphate buffer concentration were 0.1 mg/mL, 5 minutes and 50 mM, respectively, for assays performed with human liver microsomes (Table 1). […] Since it is not imperative that the concentration of marker substrates be exactly equal to Km, the marker substrate concentrations were rounded up or down, as applicable, to simplify the experimental design (data not shown). […] Thus, the final incubation concentration of phenacetin was 60 μM (Table 1).
The ability of boceprevir to inhibit the CYP enzymes listed in Section 1.2.1 was investigated with a pool of sixteen individual human liver microsomal samples at the concentrations indicated in Table 1. Aliquots of the stock and/or working solutions of boceprevir were manually added to buffer mixtures containing the components described in Section 1.3.21. Incubation mixtures were prepared in bulk to obviate the need for directly pipetting very small volumes (i.e., 1 μL or less). Incubations containing no boceprevir (0 μM) contained the vehicle used to dissolve boceprevir (i.e., 1% methanol).
The Tecan liquid handling system conducted all remaining incubation steps, with the exception of the centrifugation. Aliquots of the buffer mixtures were then automatically added to 96-well plates at the appropriate locations in duplicate. Aliquots of a substrate working solution were added to the 96-well plates, prior to initiating reactions, to give the final concentrations indicated in Table 1. Reactions were initiated with the addition of an aliquot of an NADPH-generating system. Reactions were automatically terminated at approximately 5 minutes, by the addition of the appropriate internal standard (Table 5) and stop reagent; acetonitrile. Precipitated protein was removed by centrifugation (920 g for 10 minutes at 10° C.). Standards and quality control samples were similarly prepared with the addition of authentic metabolite standards.
To examine its ability to act as a time-dependent inhibitor, boceprevir (at the same concentrations used to evaluate direct inhibition) was pre-incubated at 37±1° C., in duplicate, with human liver microsomes and an NADPH-generating system for approximately 30 minutes. This pre-incubation allowed for the generation of intermediates that could inhibit human CYP enzymes. The pre-incubations were initiated with the addition of an aliquot of an NADPH-generating system. […] Reactions were automatically terminated, at approximately 5 minutes, by the addition of the appropriate internal standard (Table 5) and stop reagent; acetonitrile. Precipitated protein was removed by centrifugation (920 g for 10 minutes at 10° C.). Incubations containing no boceprevir (0 μM) and incubations that contained boceprevir but were not pre-incubated, served as negative controls.
In general terms: Liver microsomes are a subcellular fraction often used to study metabolism.

Data set [2] deals with CYP3A4/5. The data set is described as follows: Metabolite inhibitory complex (MIC) formation, human liver microsomes with high CYP3A4/5 activity. In kind it is in vitro ADME. Conditions: 3 μM, scans 380-520 nm for 15 minutes. On the procedure: In an attempt to determine the mechanism in which boceprevir inactivated CYP3A4/5, an experiment was conducted to determine if boceprevir formed a spectrophotometrically detectable metabolite inhibitory complex with cytochrome P450 (i.e., peaks at approximately 452 nm).
In this experiment (summarized in Table 4), an individual human liver microsomal sample containing high levels of CYP3A4/5 activity (final protein concentration of 1 mg/mL, 1.7 nmol P450/mg protein) was added to the sample and reference cuvettes in a buffer mixture consisting of potassium phosphate (50 mM), and MgCl2 (3 mM) for a final volume of 980 μL. Baseline scans from 380 to 520 nm were recorded on a Varian Cary 100 BIO UV/Vis dual beam spectrophotometer. Boceprevir was then added to the sample cuvette in 10 μL of methanol for a final incubation concentration of 3 μM. A corresponding volume of the solvent (10 μL of methanol), used to dissolve boceprevir, was added to the reference. The reactions were initiated with 10 μL of β-NADPH added to both cuvettes to give a final volume of 1 mL. Continuous scans were conducted every minute for 15 minutes after the addition of β-NADPH. All scans were conducted at approximately 37° C. […]

One may read the IC50 as the concentration at which inhibition is half-maximal. Read a high IC50 as weaker potency in that assay. As to `CC(C)(C)NC(=O)NC(C(=O)N1CC2C([C@H]1C(=O)NC(CC1CCC1)C(=O)C(N)=O)C2(C)C)C(C)(C)C` (stereo partly drawn) [Boceprevir, (1R,2S,5S)—N-[(2Ξ)-4-amino-1-cyclobutyl-3,4-dioxobutan-2-yl]-3-{(2S)-2-[(tert-butylcarbamoyl)amino]-3,3-dimethylbutanoyl}-6,6-dimethyl-3-azabicyclo[3.1.0]hexane-2-carboxamide], the figures for the “Potential for Time-Dep. Inhibition” value in data set [1] and in data set [1] (listed as boceprevir) were “little or no” and “no discernable time-dependent inhibition”, respectively. Besides, the IC50 in data set [1] (direct inhibition, zero-minute pre-incubation, pooled human liver microsomes) was more than 100 µM; in data set [1] (time-dependent inhibition, 30-minute pre-incubation), more than 100 µM. Also, the inhibition at 5 min, 100 µM in data set [1] (pooled human liver microsomes, direct inhibition, zero-minute pre-incubation, read-out: Max. Inhib. at 100 μM) amounted to 22%; in data set [1] (pooled human liver microsomes, time-dependent inhibition, 30-minute pre-incubation, read-out: Maximum Inhibition at 100 μM), 9.8%. Also, the “Formation of a spectrally visible metabolite inhibitory complex (MIC)” value in data set [2] is “did not appear to form a spectrally visible MIC”.
